“Also recorded” adds a separate entry of the source. Read-outs that look alike come from different tables or passages of the source.
How the values were obtained:
A498 = test: NCI human tumor in vitro primary screen; format: cell-based; conditions: renal cancer
Text: (§1) Only two hundred years ago, many diseases ravaged humankind. Many of these diseases now have been controlled or eradicated. In the development of the means to treat or control these diseases, work with the appropriate common experimental animals was of critical importance. With the various types of cancers, and with the HIV virus, such work is presently ongoing. The research for the treatment of various types of cancer is coordinated in the United States by the National Cancer Institute (NCI). NCI, as a government entity, has been charged with assisting anti-cancer research. To establish whether a substance has anti cancer activity, NCI has established a variety of protocols, one of which involves testing the candidate substance against a cell line panel containing 60 human tumor cell lines. This protocol has been verified and is generally accepted throughout the scientific community. This protocol and the established statistical means of evaluating the results obtained therefrom have been fully described in the literature. See Principles & Practice of Oncology PPO Updates, Volume 3, Number 10, Oct. 1989, by Michael R. Boyd, M.D., Ph.D., for an indepth description of the test protocol. The statistical analysis is explained in "Display and Analysis of Patterns of Differential Activity of Drugs Against Human Tumor Cell Lines: Development of Means Graph and COMPARE Algorithm" Journal of the National Cancer Institute Reports Vol. 81, No. 14, Pg. 1088, Jul. 14, 1989, by K. D. Paull et al. Both of these references are incorporated herein by this reference thereto.
(§2) Biological Testing; Data Display and Analysis; Screening Data Summary. Freshly isolated halistatin 2 was tested in the NCI's human tumor, disease-oriented in vitro primary screen, and data calculations performed. Table 3 is a composite prepared from mean graphs constructed from the averaged GI50 values from quadruplicate screenings of Halistatin 2.

EKVX = test: NCI human tumor in vitro primary screen; format: cell-based; conditions: non-small cell lung cancer
Text: as §1, §2

HCC-2998 = test: NCI human tumor in vitro primary screen; format: cell-based; conditions: colon cancer
Text: as §1, §2

K-562 = test: NCI human tumor in vitro primary screen; format: cell-based; conditions: K562, leukemia
Text: as §1, §2

LOX IMVI = test: NCI human tumor in vitro primary screen; format: cell-based; conditions: melanoma
Text: as §1, §2

NCI-H226 = test: NCI human tumor in vitro primary screen; format: cell-based
Text: as §1, §2

OVCAR-5 = test: NCI human tumor in vitro primary screen; format: cell-based; conditions: ovarian cancer
Text: as §1, §2

OVCAR-8 = test: NCI human tumor in vitro primary screen; format: cell-based; conditions: ovarian cancer
Text: as §1, §2

SF-539 = test: NCI human tumor in vitro primary screen; format: cell-based; conditions: CNS cancer
Text: as §1, §2

SNB-19 = test: NCI human tumor in vitro primary screen; format: cell-based; conditions: CNS cancer
Text: as §1, §2

XF 498 = test: NCI human tumor in vitro primary screen; format: cell-based
Text: as §1, §2

NCI-H322M = test: cells; format: cell-based; conditions: Homo sapiens
human tumor cell lines = test: cells; format: cell-based
[1] = tested on: L1210 murine leukemia cells; test: cytotoxicity in L1210 murine leukemia cells; format: cell-based
[2] = tested on: L1210 murine leukemia cells; test: mitotic index (accumulation of cells arrested in mitosis); format: cell-based; conditions: at cytotoxic concentrations
tubulin = test: radiolabeled GTP binding to tubulin / nucleotide exchange on tubulin
Text: For radiolabeled GTP binding to tubulin, the same drug concentrations inhibited the reaction by 17% and 51% with halistatin 2.

[3] = tested on: P388 lymphocytic leukemia; test: P388 lymphocytic leukemia in vivo (NCI protocol); conditions: 40 μg/kg host body weight, BDF mice
Experimental: When BDF, mice were treated with 40 μg/kg host body weight of halistatin 2.

[4] = read-out: Log10 GI50 (converted)
[5] = read-out: Log10 TGI (converted)
[6] = read-out: averaged negative log10 GI50 (converted)

With `C=C1CC2CCC34CC5OC6C(O3)C3OC(CCC3OC6(O)C5O4)CC(=O)OC3C(CC4OC(CCC1O2)CC(C)C4=C)OC1CC2OC4(CC2OC1C3C)CC1OC2(CC(C)C3OC5CC(C(O)CO)OC5CC3O2)CC(C)C1O4` (stereo not drawn) [halistatin 2] the GI50 (A498; [4]) was 1.82 nM, the IC (TGI) (A498; [5]) was 10 nM and the GI50 (A498; [6]) was 1.82 nM. It also gave a GI50 (EKVX; [4]) of 4.07 nM, an IC (TGI) (EKVX; [5]) of 10 nM and a GI50 (EKVX; [6]) of 4.07 nM. It also gave a GI50 (HCC-2998; [4]) of 1.29 nM, an IC (TGI) (HCC-2998; [5]) of 5.25 nM and a GI50 (HCC-2998; [6]) of 1.29 nM. It also gave a GI50 (K-562; [4]) of 0.229 nM, an IC (TGI) (K-562; [5]) of 2.57 nM and a GI50 (K-562; [6]) of 0.229 nM. For the same compound, the GI50 (LOX IMVI; [4]) was 0.501 nM, the IC (TGI) (LOX IMVI; [5]) was 4.57 nM and the GI50 (LOX IMVI; [6]) was 0.501 nM. It also gave a GI50 (NCI-H226; NCl-H226, non-small cell lung cancer, read-out: Log10 GI50 (converted)) of 0.724 nM, an IC (TGI) (NCI-H226; NCl-H226, non-small cell lung cancer, read-out: Log10 TGI (converted)) of 3.72 nM and a GI50 (NCI-H226; non-small cell lung cancer, read-out: averaged negative log10 GI50 (converted)) of 0.724 nM. It also gave a GI50 (OVCAR-5; [4]) of 1.82 nM, an IC (TGI) (OVCAR-5; [5]) of 10 nM and a GI50 (OVCAR-5; [6]) of 1.82 nM. The GI50 (OVCAR-8; [4]) was 1.29 nM, the IC (TGI) (OVCAR-8; [5]) was 7.08 nM and the GI50 (OVCAR-8; [6]) was 1.29 nM. The GI50 (SF-539; [4]) was 0.324 nM, the IC (TGI) (SF-539; [5]) was 1.51 nM and the GI50 (SF-539; [6]) was 0.324 nM. For the same compound, the GI50 (SNB-19; [4]) was 2.09 nM, the IC (TGI) (SNB-19; [5]) was 10 nM and the GI50 (SNB-19; [6]) was 2.09 nM. For the same compound, the GI50 (XF 498; XF498, CNS cancer, read-out: Log10 GI50 (converted)) was 0.427 nM, the IC (TGI) (XF 498; XF498, CNS cancer, read-out: Log10 TGI (converted)) was 4.47 nM and the GI50 (XF 498; XF498, XF 498, CNS cancer, read-out: averaged negative log10 GI50 (converted)) was 0.427 nM. It also gave a GI50 (NCI-H322M; [4]) of 3.02 nM, an IC (TGI) (NCI-H322M; read-out: Log10 TGI) of 10 nM and a GI50 (NCI-H322M; [6]) of 3.02 nM. For the same compound, the potency (human tumor cell lines) was “especially noteworthy”, the screening profile (human tumor cell lines) was “characteristic of a general mechanistic class of tubulin-interactive antimitotics” and the GI50 (human tumor cell lines; Homo sapiens) was about 0.7 nM. For the same compound, the “cytotoxicity (in words)” value [1] was “significant cytotoxicity”, the IC50 ([1]; Mus musculus) was 0.4 nM and the “mitotic arrest / rise in mitotic index (in words)” value [2] was “caused a significant rise in the mitotic index; also recorded: caused the accumulation of cells arrested in mitosis”. The mitotic index [2] was at most 20%, the “inhibition of nucleotide exchange on tubulin (in words)” value (tubulin) was “inhibit nucleotide exchange on tubulin” and the “inhibition of radiolabeled GTP binding to tubulin (in words)” value (tubulin) was “inhibited the binding of radiolabeled vinblastine and GTP to tubulin”. For the same compound, the “inhibition of radiolabeled GTP binding to tubulin” value (tubulin; 5 μM) was 17%, the “inhibition of radiolabeled GTP binding to tubulin” value (tubulin; 10 μM) was 51% and the “inhibition of nucleotide exchange, comparison (in words)” value (tubulin; 5 and 10 μM, comparator not given) was “superior as an inhibitor of nucleotide exchange”. For the same compound, the cure rate [3] was 18%, the “life extension of those not cured” value [3] was 220% and the survival rate [3] was 100%.

Source: patent publication US5352804A, “Isolation and structure of Halistatin 2” (Arizona Board of Regents, a body corporate, acting on …, priority 1993, dated 1994)
